Consider 26 compounds from PubChem BioAssay AID1259408 (Genetic Toxicology Data Bank (GENE-TOX), 2018).

The subject of this data set is GENE-TOX genotoxicity assays, various organisms and cells. Put plainly: GENE-TOX mutagenicity studies. As to conditions: for call: Assay Type: In vivo carcinogenicity studies.
[1] abbreviates: Species/Cell Type: Saccharomyces cerevisiae, Assay Type: Mitotic recombination or gene conversion, Assay Code: YEH-, Evaluation Type: Evaluation A (Pre-1980).
[2] abbreviates: Species/Cell Type: Salmonella typhimurium (one or more of the five standard strains: TA98, TA100, TA1535, TA1537, and TA1538), Assay Type: Histidine reverse gene mutation, Ames assay, Assay Code: SAL-, Evaluation Type: Evaluation A (Pre-1980).
The mark [3] stands for this setting: Species/Cell Type: Mouse prostate cells, Assay Type: Cell transformation, Assay Code: CTM-, Evaluation Type: Evaluation A (Pre-1980).
The mark [4] stands for this setting: Species/Cell Type: Salmonella typhimurium (one or more of the five standard strains: TA98, TA100, TA1535, TA1537, and TA1538), Assay Type: Histidine reverse gene mutation, Ames assay, Assay Code: SAL+, Evaluation Type: Evaluation A (Pre-1980).
Where [5] appears, read: Species/Cell Type: Syrian hamster embryo (SHE) cells, Assay Type: Cell transformation, clonal assay, Assay Code: CTC+, Evaluation Type: Evaluation A (Pre-1980).
[6] abbreviates: Species/Cell Type: Escherichia coli polA (W3110 vs P3478), Assay Type: Rec-assay, DNA effects (bacterial DNA repair), Assay Code: RE2-, Evaluation Type: Evaluation A (Pre-1980).
[7] abbreviates: Species/Cell Type: Escherichia coli polA (W3119 vs P3478), Assay Type: Rec-assay, DNA effects (bacterial DNA repair), Assay Code: RE1-, Evaluation Type: Evaluation A (Pre-1980).
Setting [8] is: Species/Cell Type: Chinese hamster lung (V79) cells, Assay Type: Forward gene mutation at the HPRT or ouabain locus, Assay Code: V79-, Evaluation Type: Evaluation A (Pre-1980).
Setting [9] is: Species/Cell Type: Salmonella typhimurium (one or more of the five standard strains: TA98, TA100, TA1535, TA1537, and TA1538), Assay Type: Histidine reverse gene mutation, Ames assay, Assay Code: SALT, Evaluation Type: Evaluation A (Pre-1980).
Setting [10] is: Species/Cell Type: Bacillus subtilis (H17 vs M45), Assay Type: Rec-assay, spot test, DNA effects (bacterial DNA repair), Assay Code: REWT, Evaluation Type: Evaluation A (Pre-1980).
[11] abbreviates: Species/Cell Type: Drosophila melanogaster, Assay Type: Sex-linked recessive lethal gene mutation, Assay Code: SRLT, Evaluation Type: Evaluation A (Pre-1980).

The structures appear in SMILES notation. The source made the active and inactive calls. How the calls were made is not given here.

With `NC[C@@H]1CC[C@@H](N)[C@@H](O[C@H]2[C@H](O)[C@@H](O[C@H]3O[C@H](CO)[C@@H](O)[C@H](N)[C@H]3O)[C@H](N)C[C@@H]2N)O1`, under setting [1], the mutagenic call was “inactive; negative”.

In the case of `Nc1c[nH]c(=O)[nH]c1=O`, for the setting “Species/Cell Type: Allium cepa, Assay Type: Chromosome aberrations, Assay Code: ALC+, Evaluation Type: Evaluation A (Pre-1980)”, the mutagenic call is “active; positive”.

With `Cc1ccc(Cl)cc1`, the mutagenic call was “inactive; negative” under setting [1] and “inactive; negative” under setting [2].

As to `Nc1cccc2c1-c1ccccc1C2`, the mutagenic call (Species/Cell Type: Fischer rat embryo (RLV/1706) cells, Assay Type: Cell transformation, viral enhanced, Assay Code: CTR-, Evaluation Type: Evaluation A (Pre-1980)) is “inactive; negative” and the mutagenic call (Species/Cell Type: Mouse embryo (AKR/ME) cells, Assay Type: Cell transformation, Assay Code: CTK-, Evaluation Type: Evaluation A (Pre-1980)) was “inactive; negative”.

On to `c1ccc2c(c1)-c1ccc3ccccc3c1C1OC21` (configuration not stated), for which the mutagenic call was “inactive; negative” under setting [3], “active; positive” under setting [4] and “active; positive” under setting [5].

Consider `Cc1ccc(N)cc1`, for which the mutagenic call by setting is: under setting [6], “inactive; negative”; under setting [7], “inactive; negative”; (Species/Cell Type: Saccharomyces cerevisiae, Assay Type: Mitotic recombination or gene conversion, Assay Code: YEH+*, Activation: With metabolic activation, Evaluation Type: Evaluation A (Pre-1980)) “active; positive”; under setting [1], “inactive; negative”.

With `Cc1cc(O)c2c(c1O)C(=O)c1c(O)ccc(O)c1C2=O`, under setting [4], the mutagenic call was “active; positive”.

With `ClCc1c2ccccc2c(Cl)c2ccccc12`, the mutagenic call under setting [4] was “active; positive”.

`CC(CO)OS(C)(=O)=O` (configuration not stated): where the note is “Species/Cell Type: Hordeum vulgare (barley), Assay Type: Chromosome aberrations, Assay Code: HOC+D, Dose Response: With dose response, Evaluation Type: Evaluation A (Pre-1980)”, the mutagenic call is “active; positive”.

Consider `CO[C@@H]1[C@H](O)C[C@@H](O[C@@H]2C[C@H](Oc3cc4cc5c(c(O)c4c(O)c3C)C(=O)[C@@H](O[C@H]3C[C@@H](O[C@H]4C[C@@H](O[C@H]6C[C@](C)(O)[C@@H](OC(C)=O)[C@H](C)O6)[C@H](O)[C@@H](C)O4)[C@H](O)[C@@H](C)O3)[C@H]([C@H](OC)C(=O)[C@@H](O)[C@@H](C)O)C5)O[C@H](C)[C@@H]2OC(C)=O)O[C@@H]1C`, for which the mutagenic call (Species/Cell Type: Chinese hamster ovary (CHO) cells, Assay Type: Forward gene mutation at the HPRT locus, Assay Code: CHO+, Evaluation Type: Evaluation B (Post-1980)) is “active; positive”.

Turning to `CCN(CC)c1ccc2c(-c3ccc(C(=O)O)cc3C(=O)[O-])c3ccc(=[N+](CC)CC)cc-3oc2c1`, the mutagenic call was “inactive; negative” (Species/Cell Type: Mammalian polychromatic erythrocytes, Assay Type: Micronucleus test, chromosome aberrations, Assay Code: MNT-, Evaluation Type: Evaluation B (Post-1980)) and “active; positive” (Species/Cell Type: Nonhuman, Assay Type: Sister-chromatid exchange (SCE) in vitro, Assay Code: SC2+D, Dose Response: With dose response, Evaluation Type: Evaluation B (Post-1980)).

Consider `O[C@@H]1C=Cc2cc3ccc4cccc5ccc(c2[C@@H]1O)c3c45`, for which the mutagenic call is “inactive; negative” under setting [8] and “no conclusion” under setting [9].

Regarding `CC(=O)OC[C@H]1O[C@@H](Oc2ccc(O)c3c2C(=O)c2ccccc2C3=O)[C@H](OC(C)=O)[C@@H](OC(C)=O)[C@@H]1OC(C)=O`, the mutagenic call under setting [9] was “no conclusion”.

For `CN(C)P(=O)(N(C)C)N1CC1`, the mutagenic call was “active; positive” (Species/Cell Type: Drosophila melanogaster, Assay Type: Sex-linked recessive lethal gene mutation, Assay Code: SRL+, Evaluation Type: Evaluation A (Pre-1980)); “active; positive” (Species/Cell Type: Human lymphocytes, Assay Type: Sister-chromatid exchange (SCE) in vitro, Assay Code: SCL+D, Dose Response: With dose response, Evaluation Type: Evaluation B (Post-1980)); “active; positive” (Species/Cell Type: Human, Assay Type: Sister-chromatid exchange (SCE) in vitro, Assay Code: SC1+D, Dose Response: With dose response, Evaluation Type: Evaluation B (Post-1980)); “active; positive” (Species/Cell Type: Nonhuman, Assay Type: Chromosome aberrations in vitro, Assay Code: CY&+, Evaluation Type: Evaluation A (Pre-1980)).

In the case of `CC(C)(c1ccc(O)cc1)c1ccc(O)cc1` (tested in a mixture with another compound), the mutagenic call under setting [4] was “active; positive”.

Regarding `O=C1OC(c2ccc(O)cc2)(c2ccc(O)cc2)c2ccccc21`, the mutagenic call by setting is: (Species/Cell Type: Bacillus subtilis (H17 vs M45), Assay Type: Rec-assay, spot test, DNA effects (bacterial DNA repair), Assay Code: REW-, Evaluation Type: Evaluation A (Pre-1980)) “inactive; negative”; (Species/Cell Type: Bacillus subtilis (H17 vs M45T), Assay Type: Rec-assay, spot test, DNA effects (bacterial DNA repair), Assay Code: REXT, Evaluation Type: Evaluation A (Pre-1980)) “no conclusion”.

Consider `COc1ccc(/C=N\NC(=O)COc2ccc(Br)cc2CN2CCCCC2)cc1`, for which the mutagenic call (Species/Cell Type: Saccharomyces cerevisiae, Assay Type: Reverse gene mutation, Assay Code: YERT, Evaluation Type: Evaluation A (Pre-1980)) is recorded as “no conclusion”.

On to `O[C@@H]1c2ccccc2-c2cc3ccc4ccccc4c3cc2[C@@H]1O`, for which the mutagenic call under setting [8] was “inactive; negative”, the mutagenic call under setting [3] is “inactive; negative” and the mutagenic call under setting [5] was “active; positive”.

On to `O=C1OC2(c3ccc(O)cc3Oc3cc(O)ccc32)c2ccccc21`, for which the mutagenic call under setting [10] is reported as “no conclusion”.

With `CC(=O)c1ccccc1`, the mutagenic call under setting [6] is “inactive; negative” and the mutagenic call under setting [7] is “inactive; negative”.

For `ClC(Cl)(Cl)C(Cl)(Cl)Cl`, the call (Species/Cell Type: Nonhuman, Assay Code: CCG+L, Evaluation Type: Evaluation A (Pre-1980)) was “active; positive”. For the same compound, the mutagenic call is, setting by setting: under setting [1], “inactive; negative”; under setting [2], “inactive; negative”.

Consider `CCCCNC(=O)OCC`, for which, where the note is “Species/Cell Type: Nonhuman, Assay Code: CCGT, Evaluation Type: Evaluation A (Pre-1980)”, the call was “no conclusion”. In addition, the mutagenic call (Species/Cell Type: Nonhuman, Assay Type: Sister-chromatid exchange (SCE) in vitro, Assay Code: SC2-, Evaluation Type: Evaluation A (Pre-1980)) is “inactive; negative”.

`C=C/C=C/C=C/C#CC#C/C=C/C`: the mutagenic call (Species/Cell Type: Nonhuman, Assay Type: Sister-chromatid exchange (SCE) in vitro, Assay Code: SC2T, Evaluation Type: Evaluation B (Post-1980)) is “no conclusion”.

As to `CCCCc1cc2c(c3ccc4ccccc4c13)CCC2=O`, the mutagenic call under setting [9] is recorded as “no conclusion”.

As for `COP(=S)(OC)Oc1ccc(SC)c(C)c1`, the mutagenic call was “no conclusion” under setting [10]; “no conclusion” under setting [11]; “inactive; negative” (Species/Cell Type: Escherichia coli WP2 UVRA, Assay Type: Tryptophan reverse gene mutation, Assay Code: WPU-*, Activation: With metabolic activation, Evaluation Type: Evaluation A (Pre-1980)); “no conclusion” (Species/Cell Type: Escherichia coli polA (W3119 vs P3478), Assay Type: Rec-assay, DNA effects (bacterial DNA repair), Assay Code: RE1T, Evaluation Type: Evaluation A (Pre-1980)); “inactive; negative” (Species/Cell Type: Human diploid fibroblasts, Assay Type: Unscheduled DNA synthesis (UDS) in vitro, DNA effects, Assay Code: UDH-, Evaluation Type: Evaluation A (Pre-1980)); “no conclusion” (Species/Cell Type: Human, Assay Type: Sister-chromatid exchange (SCE) in vitro, Assay Code: SC1T, Evaluation Type: Evaluation B (Post-1980)). In addition, the mutagenic call is “active; positive” (Species/Cell Type: Nonhuman, Assay Type: Sister-chromatid exchange (SCE) in vitro, Assay Code: SC2+D*, Activation: With metabolic activation, Dose Response: With dose response, Evaluation Type: Evaluation B (Post-1980)) and “inactive; negative” under setting [1].

Take `CC(F)F`: the mutagenic call under setting [11] is “no conclusion”.
